This is an account of results in patent US12655125B2 (SIRONAX LTD., priority 2020, dated 2026).

Each structure is given as a SMILES string.

In one experiment the test system is HT-29 cells. In words: HT29 Cells 0FBS Assay In Vitro (TNF-α/SMAC mimetic/zVAD-FMK induced necroptosis, CellTiter-Glo cell viability). The format is cell-based. To be noted: Homo sapiens, HT-29, 20 h, read-out: Cell activity (EC50) of Compounds 1-116. A digest of the protocol:
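Viability was measured by ATP luminescence (CellTiter-Glo) after 20 h at 37° C of compound exposure in 10-point, 1:3 dilutions. Necroptosis in FBS-free HT-29 cultures was driven by a TNF-α (10 ng/ml), SMAC mimetic (6 μM) and zVAD-FMK (10 μM) cocktail. EC50 values are geometric means from duplicate curves.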
A general note: Cellular ATP, detected with luciferase, serves as a proxy for viable cell number.
In general, EC50 refers to the concentration that produces a half-maximal response. As to `CN(C)Cc1cnn(C)c1-c1cc(OC2CN(C(=O)N3N=CC[C@H]3c3cc(F)cc(F)c3)C2)c(F)cn1` [compound 79, (S)-(5-(3,5-difluorophenyl)-4,5-dihydro-1H-pyrazol-1-yl)(3-((2-(4-((dimethylamino)methyl)-1-methyl-1H-pyrazol-5-yl)-5-fluoropyridin-4-yl)oxy)azetidin-1-yl)methanone], the EC50 is 0.1 to 100 nM.

The same experiment, now with this note: Homo sapiens; HT-29 cells, FBS free medium, TNF-α (10 ng/ml), SMAC mimetic (6 uM), zVAD-FMK (10 μM), 20 hours; geometric mean EC50; read-out: Cell activity (EC50) of Compounds 1-116.
With `CC(=O)Nc1cnn(C)c1-c1cc(OC2CN(C(=O)N3N=CC[C@H]3c3cc(F)cc(F)c3)C2)c(F)cn1` [compound 57, (S)—N-(5-(4-((1-(5-(3,5-difluorophenyl)-4,5-dihydro-1H-pyrazole-1-carbonyl)azetidin-3-yl)oxy)-5-fluoropyridin-2-yl)-1-methyl-1H-pyrazol-4-yl)acetamide], the concentration giving a half-maximal response (EC50) is 0.1 to 100 nM.
The same measure, in the same setting: in the case of `CCC(=O)Nc1cnn(C)c1-c1cc(OC2CN(C(=O)N3N=CC[C@H]3c3cc(F)cc(F)c3)C2)c(F)cn1` [compound 58, (S)—N-(5-(4-((1-(5-(3,5-difluorophenyl)-4,5-dihydro-1H-pyrazole-1-carbonyl)azetidin-3-yl)oxy)-5-fluoropyridin-2-yl)-1-methyl-1H-pyrazol-4-yl)propionamide] it was 0.1 to 100 nM.
Turning to `CC(C)C(=O)Nc1cnn(C)c1-c1cc(OC2CN(C(=O)N3N=CC[C@H]3c3cc(F)cc(F)c3)C2)c(F)cn1` [compound 59, (S)—N-(5-(4-((1-(5-(3,5-difluorophenyl)-4,5-dihydro-1H-pyrazole-1-carbonyl)azetidin-3-yl)oxy)-5-fluoropyridin-2-yl)-1-methyl-1H-pyrazol-4-yl)isobutyramide], the EC50 lay in the range of 0.1 to 100 nM.
Still for that read-out and setting: in the case of `CC(C)CC(=O)Nc1cnn(C)c1-c1cc(OC2CN(C(=O)N3N=CC[C@H]3c3cc(F)cc(F)c3)C2)c(F)cn1` [compound 60, (S)—N-(5-(4-((1-(5-(3,5-difluorophenyl)-4,5-dihydro-1H-pyrazole-1-carbonyl)azetidin-3-yl)oxy)-5-fluoropyridin-2-yl)-1-methyl-1H-pyrazol-4-yl)-3-methylbutanamide] it was 0.1 to 100 nM.
On the same count and under the same terms, the value for `CNC(=O)CNc1cnn(C)c1-c1cc(OC2CN(C(=O)N3N=CC[C@H]3c3cc(F)cc(F)c3)C2)c(F)cn1` [compound 61, (S)-2-((5-(4-((1-(5-(3,5-difluorophenyl)-4,5-dihydro-1H-pyrazole-1-carbonyl)azetidin-3-yl)oxy)-5-fluoropyridin-2-yl)-1-methyl-1H-pyrazol-4-yl)amino)-N-methylacetamide] was 0.1 to 100 nM.
For the compound `Cn1ncc(NCC(=O)N2CCOCC2)c1-c1cc(OC2CN(C(=O)N3N=CC[C@H]3c3cc(F)cc(F)c3)C2)c(F)cn1` [compound 62, (S)-2-((5-(4-((1-(5-(3,5-difluorophenyl)-4,5-dihydro-1H-pyrazole-1-carbonyl)azetidin-3-yl)oxy)-5-fluoropyridin-2-yl)-1-methyl-1H-pyrazol-4-yl)amino)-1-morpholinoethan-1-one], the EC50 is 0.1 to 100 nM.
On the same count and under the same terms, the value for `CN(C)C(=O)CNc1cnn(C)c1-c1cc(OC2CN(C(=O)N3N=CC[C@H]3c3cc(F)cc(F)c3)C2)c(F)cn1` [compound 63, (S)-2-((5-(4-((1-(5-(3,5-difluorophenyl)-4,5-dihydro-1H-pyrazole-1-carbonyl)azetidin-3-yl)oxy)-5-fluoropyridin-2-yl)-1-methyl-1H-pyrazol-4-yl)amino)-N,N-dimethylacetamide] was 0.1 to 100 nM; that for `COC(=O)c1cnn(C)c1-c1cc(OC2CN(C(=O)N3N=CC[C@H]3c3cc(F)cc(F)c3)C2)c(F)cn1` [compound 64, methyl (S)-5-(4-((1-(5-(3,5-difluorophenyl)-4,5-dihydro-1H-pyrazole-1-carbonyl)azetidin-3-yl)oxy)-5-fluoropyridin-2-yl)-1-methyl-1H-pyrazole-4-carboxylate] was 0.1 to 100 nM.
In the case of `Cn1ncc(C(=O)O)c1-c1cc(OC2CN(C(=O)N3N=CC[C@H]3c3cc(F)cc(F)c3)C2)c(F)cn1` [compound 65, (S)-5-(4-((1-(5-(3,5-difluorophenyl)-4,5-dihydro-1H-pyrazole-1-carbonyl)azetidin-3-yl)oxy)-5-fluoropyridin-2-yl)-1-methyl-1H-pyrazole-4-carboxylic acid], the concentration for a half-maximal effect (EC50) lay within 1000 to 10000 nM.
Same read-out and setting: the value for `Cn1ncc(C(N)=O)c1-c1cc(OC2CN(C(=O)N3N=CC[C@H]3c3cc(F)cc(F)c3)C2)c(F)cn1` [compound 66, (S)-5-(4-((1-(5-(3,5-difluorophenyl)-4,5-dihydro-1H-pyrazole-1-carbonyl)azetidin-3-yl)oxy)-5-fluoropyridin-2-yl)-1-methyl-1H-pyrazole-4-carboxamide] was 0.1 to 100 nM; that for `CNC(=O)c1cnn(C)c1-c1cc(OC2CN(C(=O)N3N=CC[C@H]3c3cc(F)cc(F)c3)C2)c(F)cn1` [compound 67, (S)-5-(4-((1-(5-(3,5-difluorophenyl)-4,5-dihydro-1H-pyrazole-1-carbonyl)azetidin-3-yl)oxy)-5-fluoropyridin-2-yl)-N,1-dimethyl-1H-pyrazole-4-carboxamide] was 0.1 to 100 nM.
With `CN(C)C(=O)c1cnn(C)c1-c1cc(OC2CN(C(=O)N3N=CC[C@H]3c3cc(F)cc(F)c3)C2)c(F)cn1` [compound 68, (S)-5-(4-((1-(5-(3,5-difluorophenyl)-4,5-dihydro-1H-pyrazole-1-carbonyl)azetidin-3-yl)oxy)-5-fluoropyridin-2-yl)-N,N,1-trimethyl-1H-pyrazole-4-carboxamide], the EC50 is 1000 to 10000 nM.
Same read-out and setting: in the case of `CN(C)CCNC(=O)c1cnn(C)c1-c1cc(OC2CN(C(=O)N3N=CC[C@H]3c3cc(F)cc(F)c3)C2)c(F)cn1` [compound 69, (S)-5-(4-((1-(5-(3,5-difluorophenyl)-4,5-dihydro-1H-pyrazole-1-carbonyl)azetidin-3-yl)oxy)-5-fluoropyridin-2-yl)-N-(2-(dimethylamino)ethyl)-1-methyl-1H-pyrazole-4-carboxamide] it was 100 to 1000 nM; in that of `CC(C)CNC(=O)c1cnn(C)c1-c1cc(OC2CN(C(=O)N3N=CC[C@H]3c3cc(F)cc(F)c3)C2)c(F)cn1` [compound 70, (S)-5-(4-((1-(5-(3,5-difluorophenyl)-4,5-dihydro-1H-pyrazole-1-carbonyl)azetidin-3-yl)oxy)-5-fluoropyridin-2-yl)-N-isobutyl-1-methyl-1H-pyrazole-4-carboxamide], 0.1 to 100 nM.
On to `CCNC(=O)c1cnn(C)c1-c1cc(OC2CN(C(=O)N3N=CC[C@H]3c3cc(F)cc(F)c3)C2)c(F)cn1` [compound 71, (S)-5-(4-((1-(5-(3,5-difluorophenyl)-4,5-dihydro-1H-pyrazole-1-carbonyl)azetidin-3-yl)oxy)-5-fluoropyridin-2-yl)-N-ethyl-1-methyl-1H-pyrazole-4-carboxamide], for which the EC50 was in the range of 0.1 to 100 nM.
On to `Cn1ncc(C(=O)N2CCC2)c1-c1cc(OC2CN(C(=O)N3N=CC[C@H]3c3cc(F)cc(F)c3)C2)c(F)cn1` [compound 72, (S)-azetidin-1-yl(5-(4-((1-(5-(3,5-difluorophenyl)-4,5-dihydro-1H-pyrazole-1-carbonyl)azetidin-3-yl)oxy)-5-fluoropyridin-2-yl)-1-methyl-1H-pyrazol-4-yl)methanone], for which the concentration for a half-maximal effect (EC50) is 100 to 1000 nM.
For `Cn1ncc(C(=O)N2CC(O)C2)c1-c1cc(OC2CN(C(=O)N3N=CC[C@H]3c3cc(F)cc(F)c3)C2)c(F)cn1` [compound 73, (S)-(5-(3,5-difluorophenyl)-4,5-dihydro-1H-pyrazol-1-yl)(3-((5-fluoro-2-(4-(3-hydroxyazetidine-1-carbonyl)-1-methyl-1H-pyrazol-5-yl)pyridin-4-yl)oxy)azetidin-1-yl)methanone], the EC50 lay in the range of 100 to 1000 nM.
Still for that read-out and setting: the value for `COC1CN(C(=O)c2cnn(C)c2-c2cc(OC3CN(C(=O)N4N=CC[C@H]4c4cc(F)cc(F)c4)C3)c(F)cn2)C1` [compound 74, (S)-(5-(3,5-difluorophenyl)-4,5-dihydro-1H-pyrazol-1-yl)(3-((5-fluoro-2-(4-(3-methoxyazetidine-1-carbonyl)-1-methyl-1H-pyrazol-5-yl)pyridin-4-yl)oxy)azetidin-1-yl)methanone] was 100 to 1000 nM; that for `Cn1ncc(C(=O)N2CCCC2)c1-c1cc(OC2CN(C(=O)N3N=CC[C@H]3c3cc(F)cc(F)c3)C2)c(F)cn1` [compound 75, (S)-(5-(3,5-difluorophenyl)-4,5-dihydro-1H-pyrazol-1-yl)(3-((5-fluoro-2-(1-methyl-4-(pyrrolidine-1-carbonyl)-1H-pyrazol-5-yl)pyridin-4-yl)oxy)azetidin-1-yl)methanone] was 1000 to 10000 nM; that for `Cn1ncc(C(=O)N2CCCCC2)c1-c1cc(OC2CN(C(=O)N3N=CC[C@H]3c3cc(F)cc(F)c3)C2)c(F)cn1` [compound 76, (S)-(5-(3,5-difluorophenyl)-4,5-dihydro-1H-pyrazol-1-yl)(3-((5-fluoro-2-(1-methyl-4-(piperidine-1-carbonyl)-1H-pyrazol-5-yl)pyridin-4-yl)oxy)azetidin-1-yl)methanone] was 1000 to 10000 nM.
On the same count and under the same terms, the value for `Cn1ncc(C(=O)N2CCOCC2)c1-c1cc(OC2CN(C(=O)N3N=CC[C@H]3c3cc(F)cc(F)c3)C2)c(F)cn1` [compound 77, (S)-(5-(3,5-difluorophenyl)-4,5-dihydro-1H-pyrazol-1-yl)(3-((5-fluoro-2-(1-methyl-4-(morpholine-4-carbonyl)-1H-pyrazol-5-yl)pyridin-4-yl)oxy)azetidin-1-yl)methanone] was 1000 to 10000 nM; that for `Cn1ncc(CO)c1-c1cc(OC2CN(C(=O)N3N=CC[C@H]3c3cc(F)cc(F)c3)C2)c(F)cn1` [compound 78, (S)-(5-(3,5-difluorophenyl)-4,5-dihydro-1H-pyrazol-1-yl)(3-((5-fluoro-2-(4-(hydroxymethyl)-1-methyl-1H-pyrazol-5-yl)pyridin-4-yl)oxy)azetidin-1-yl)methanone] was 0.1 to 100 nM.
